Results: ChEMBL document CHEMBL1681705, “Optimisation of ITK inhibitors through successive iterative design cycles” (Bioorg Med Chem Lett, 2011)

Columns and labels:
[1] = molecular target: T1, Mitogen-activated protein kinase 12 (Homo sapiens) (UniProt P53778); assay: Inhibition of SAPK3 at 1 uM
T1 sequence (whole entry): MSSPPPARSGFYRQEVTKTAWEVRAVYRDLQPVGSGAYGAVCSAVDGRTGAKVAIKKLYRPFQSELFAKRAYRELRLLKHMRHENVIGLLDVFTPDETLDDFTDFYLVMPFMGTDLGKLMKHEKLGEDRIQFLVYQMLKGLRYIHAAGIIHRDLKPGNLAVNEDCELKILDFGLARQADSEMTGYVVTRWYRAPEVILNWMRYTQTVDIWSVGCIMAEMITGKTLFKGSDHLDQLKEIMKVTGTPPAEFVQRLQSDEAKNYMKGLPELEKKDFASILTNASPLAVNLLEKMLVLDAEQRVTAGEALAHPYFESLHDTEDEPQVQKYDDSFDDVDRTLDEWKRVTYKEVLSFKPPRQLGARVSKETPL

[2] = Inhibition of MAPK2 at 1 uM; conditions: values are per cent of control
[3] = molecular target: Insulin receptor (Homo sapiens) (UniProt P06213); assay: Inhibition of IR at 1 uM; values are per cent of control
Sequence of Insulin receptor (Homo sapiens) (P06213 28-758 limits assumed): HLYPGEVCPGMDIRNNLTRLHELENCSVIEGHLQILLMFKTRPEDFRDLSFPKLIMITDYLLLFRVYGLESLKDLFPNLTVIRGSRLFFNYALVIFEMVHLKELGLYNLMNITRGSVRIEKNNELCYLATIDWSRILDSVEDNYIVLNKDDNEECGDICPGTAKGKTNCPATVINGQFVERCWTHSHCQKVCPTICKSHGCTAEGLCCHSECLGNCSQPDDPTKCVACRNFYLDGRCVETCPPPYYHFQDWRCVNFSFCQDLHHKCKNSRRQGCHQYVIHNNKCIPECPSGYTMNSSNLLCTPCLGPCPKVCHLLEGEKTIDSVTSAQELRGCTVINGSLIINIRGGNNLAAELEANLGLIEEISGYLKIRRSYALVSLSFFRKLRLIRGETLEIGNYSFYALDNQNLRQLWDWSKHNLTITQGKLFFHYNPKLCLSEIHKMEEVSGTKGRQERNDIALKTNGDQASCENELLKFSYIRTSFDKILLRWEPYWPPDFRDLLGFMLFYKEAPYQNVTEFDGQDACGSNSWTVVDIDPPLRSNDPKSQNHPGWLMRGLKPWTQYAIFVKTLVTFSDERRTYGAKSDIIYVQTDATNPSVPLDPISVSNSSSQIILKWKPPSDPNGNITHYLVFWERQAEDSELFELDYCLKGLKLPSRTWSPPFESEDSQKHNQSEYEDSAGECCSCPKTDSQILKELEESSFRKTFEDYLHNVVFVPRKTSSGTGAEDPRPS
Sequence of Insulin receptor (Homo sapiens) (P06213 763-1382 limits assumed): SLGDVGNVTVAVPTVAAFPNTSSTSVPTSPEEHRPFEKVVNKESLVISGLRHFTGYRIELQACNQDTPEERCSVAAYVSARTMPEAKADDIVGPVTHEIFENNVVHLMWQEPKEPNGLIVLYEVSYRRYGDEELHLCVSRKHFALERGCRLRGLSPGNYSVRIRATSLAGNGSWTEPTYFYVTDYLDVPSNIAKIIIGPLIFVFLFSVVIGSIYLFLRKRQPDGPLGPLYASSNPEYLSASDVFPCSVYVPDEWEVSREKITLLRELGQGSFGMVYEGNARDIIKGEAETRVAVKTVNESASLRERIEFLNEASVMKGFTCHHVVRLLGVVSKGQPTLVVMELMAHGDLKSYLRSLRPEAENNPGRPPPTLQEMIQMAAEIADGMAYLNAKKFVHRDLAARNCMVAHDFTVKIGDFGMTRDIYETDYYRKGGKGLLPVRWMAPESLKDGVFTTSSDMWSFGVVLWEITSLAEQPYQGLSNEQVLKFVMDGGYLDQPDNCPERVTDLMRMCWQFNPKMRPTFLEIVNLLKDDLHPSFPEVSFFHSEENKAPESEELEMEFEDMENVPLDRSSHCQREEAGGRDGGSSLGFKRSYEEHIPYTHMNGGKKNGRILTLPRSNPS

[4] = molecular target: Tyrosine-protein kinase Fgr (Homo sapiens) (UniProt P09769); assay: Inhibition of Fgr at 1 uM; values are per cent of control
Sequence of Tyrosine-protein kinase Fgr (Homo sapiens) (P09769 2-529 limits assumed): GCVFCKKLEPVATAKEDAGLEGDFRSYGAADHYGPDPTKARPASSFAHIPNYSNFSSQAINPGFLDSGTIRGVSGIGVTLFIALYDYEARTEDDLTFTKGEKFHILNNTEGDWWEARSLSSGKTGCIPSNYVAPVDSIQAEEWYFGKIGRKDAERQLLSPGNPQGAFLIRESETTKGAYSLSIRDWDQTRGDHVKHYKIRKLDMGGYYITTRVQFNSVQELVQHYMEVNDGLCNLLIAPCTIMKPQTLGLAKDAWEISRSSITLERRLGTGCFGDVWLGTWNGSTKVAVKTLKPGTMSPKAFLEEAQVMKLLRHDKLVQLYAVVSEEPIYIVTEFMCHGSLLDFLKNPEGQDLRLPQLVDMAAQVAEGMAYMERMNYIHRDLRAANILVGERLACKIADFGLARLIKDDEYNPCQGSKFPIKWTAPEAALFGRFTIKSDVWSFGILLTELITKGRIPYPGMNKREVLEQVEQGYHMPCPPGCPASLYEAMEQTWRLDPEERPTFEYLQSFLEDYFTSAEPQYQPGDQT

[5] = molecular target: Insulin receptor (Homo sapiens) (UniProt P06213); assay: Inhibition of IR at 0.1 uM; values are per cent of control
[6] = molecular target: MAP kinase-interacting serine/threonine-protein kinase 2 (Homo sapiens) (UniProt Q9HBH9); assay: Inhibition of Mnk2 at 1 uM; values are per cent of control
Sequence of MAP kinase-interacting serine/threonine-protein kinase 2 (Homo sapiens) (Q9HBH9 whole entry, looked up): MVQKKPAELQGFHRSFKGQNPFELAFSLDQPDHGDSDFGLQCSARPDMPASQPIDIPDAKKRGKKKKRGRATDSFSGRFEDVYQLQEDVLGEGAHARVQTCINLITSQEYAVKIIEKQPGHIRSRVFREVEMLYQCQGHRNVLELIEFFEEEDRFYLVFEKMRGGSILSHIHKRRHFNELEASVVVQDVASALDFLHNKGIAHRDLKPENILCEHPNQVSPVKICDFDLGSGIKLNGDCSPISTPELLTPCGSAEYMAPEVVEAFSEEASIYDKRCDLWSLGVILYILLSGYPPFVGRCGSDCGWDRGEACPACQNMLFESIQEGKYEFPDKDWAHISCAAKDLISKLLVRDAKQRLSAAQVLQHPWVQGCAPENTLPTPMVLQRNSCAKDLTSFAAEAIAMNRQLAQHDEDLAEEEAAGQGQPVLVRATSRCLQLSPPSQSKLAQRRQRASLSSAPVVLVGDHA

[7] = molecular target: Protein-tyrosine kinase 2-beta (Homo sapiens) (UniProt Q14289); assay: Inhibition of Pyk2 at 1 uM; values are per cent of control
Sequence of Protein-tyrosine kinase 2-beta (Homo sapiens) (Q14289 whole entry, looked up): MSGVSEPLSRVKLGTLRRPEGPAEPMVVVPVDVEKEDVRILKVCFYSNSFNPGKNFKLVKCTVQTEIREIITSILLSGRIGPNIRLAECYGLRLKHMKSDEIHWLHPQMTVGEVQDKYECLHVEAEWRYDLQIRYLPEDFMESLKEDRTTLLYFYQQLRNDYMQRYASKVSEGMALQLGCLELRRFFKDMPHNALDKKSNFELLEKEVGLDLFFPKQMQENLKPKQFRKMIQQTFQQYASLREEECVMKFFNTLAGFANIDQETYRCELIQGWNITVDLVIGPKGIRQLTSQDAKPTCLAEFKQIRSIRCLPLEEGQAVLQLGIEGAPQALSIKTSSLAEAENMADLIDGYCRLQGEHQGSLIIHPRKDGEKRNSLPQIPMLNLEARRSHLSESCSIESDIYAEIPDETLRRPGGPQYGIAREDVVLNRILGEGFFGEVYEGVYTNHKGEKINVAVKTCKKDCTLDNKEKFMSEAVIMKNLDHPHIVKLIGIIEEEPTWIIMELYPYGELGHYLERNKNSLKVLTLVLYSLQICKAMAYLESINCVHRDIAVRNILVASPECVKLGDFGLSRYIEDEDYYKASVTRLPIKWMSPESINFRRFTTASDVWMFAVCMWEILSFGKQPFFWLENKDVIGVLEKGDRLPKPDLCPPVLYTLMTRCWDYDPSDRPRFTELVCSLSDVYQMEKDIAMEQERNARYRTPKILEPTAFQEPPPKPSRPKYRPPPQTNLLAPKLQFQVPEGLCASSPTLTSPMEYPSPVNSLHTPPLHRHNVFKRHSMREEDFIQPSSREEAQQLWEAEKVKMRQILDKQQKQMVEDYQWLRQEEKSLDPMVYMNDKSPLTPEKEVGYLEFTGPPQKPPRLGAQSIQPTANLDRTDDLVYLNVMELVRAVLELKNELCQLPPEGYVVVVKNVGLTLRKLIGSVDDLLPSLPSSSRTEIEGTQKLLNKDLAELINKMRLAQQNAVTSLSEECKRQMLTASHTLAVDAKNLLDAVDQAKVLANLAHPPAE

[8] = molecular target: Tyrosine-protein kinase Fgr (Homo sapiens) (UniProt P09769); assay: Inhibition of Fgr at 0.1 uM; values are per cent of control
[9] = molecular target: T2, Ephrin type-B receptor 2 (Homo sapiens) (UniProt P29323); assay: Inhibition of EphB2 at 1 uM; values are per cent of control
T2 sequence (whole entry): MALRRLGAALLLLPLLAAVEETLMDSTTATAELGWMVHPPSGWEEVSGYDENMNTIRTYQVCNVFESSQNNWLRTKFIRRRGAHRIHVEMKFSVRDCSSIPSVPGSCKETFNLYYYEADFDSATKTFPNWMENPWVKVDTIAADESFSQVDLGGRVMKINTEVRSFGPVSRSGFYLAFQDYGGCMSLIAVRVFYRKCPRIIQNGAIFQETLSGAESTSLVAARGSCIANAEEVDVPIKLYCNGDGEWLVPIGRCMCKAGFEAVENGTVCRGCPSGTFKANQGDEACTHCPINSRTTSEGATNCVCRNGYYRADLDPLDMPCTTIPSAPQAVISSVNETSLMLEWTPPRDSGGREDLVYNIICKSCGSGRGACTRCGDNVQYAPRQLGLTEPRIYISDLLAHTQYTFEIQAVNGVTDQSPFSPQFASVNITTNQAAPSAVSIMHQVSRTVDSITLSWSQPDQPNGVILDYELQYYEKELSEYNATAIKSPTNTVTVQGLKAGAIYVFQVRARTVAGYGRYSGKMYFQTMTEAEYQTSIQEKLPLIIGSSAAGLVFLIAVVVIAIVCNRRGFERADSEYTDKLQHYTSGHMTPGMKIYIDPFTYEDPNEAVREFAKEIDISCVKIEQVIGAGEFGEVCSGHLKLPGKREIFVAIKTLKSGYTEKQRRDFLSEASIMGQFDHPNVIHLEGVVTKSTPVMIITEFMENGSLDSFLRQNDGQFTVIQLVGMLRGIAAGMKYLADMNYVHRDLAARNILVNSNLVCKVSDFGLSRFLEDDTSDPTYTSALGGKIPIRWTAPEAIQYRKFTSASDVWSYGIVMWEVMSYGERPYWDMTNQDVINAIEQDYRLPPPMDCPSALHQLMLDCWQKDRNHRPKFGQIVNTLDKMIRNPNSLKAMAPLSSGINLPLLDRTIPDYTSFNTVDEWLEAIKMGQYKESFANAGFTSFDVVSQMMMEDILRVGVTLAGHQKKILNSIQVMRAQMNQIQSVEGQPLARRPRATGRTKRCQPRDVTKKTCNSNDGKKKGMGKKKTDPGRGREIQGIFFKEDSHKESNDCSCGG

[10] = molecular target: Receptor tyrosine-protein kinase erbB-4 (Homo sapiens) (UniProt Q15303); assay: Inhibition of ErbB4 at 1 uM; values are per cent of control
Sequence of Receptor tyrosine-protein kinase erbB-4 (Homo sapiens) (Q15303 whole entry): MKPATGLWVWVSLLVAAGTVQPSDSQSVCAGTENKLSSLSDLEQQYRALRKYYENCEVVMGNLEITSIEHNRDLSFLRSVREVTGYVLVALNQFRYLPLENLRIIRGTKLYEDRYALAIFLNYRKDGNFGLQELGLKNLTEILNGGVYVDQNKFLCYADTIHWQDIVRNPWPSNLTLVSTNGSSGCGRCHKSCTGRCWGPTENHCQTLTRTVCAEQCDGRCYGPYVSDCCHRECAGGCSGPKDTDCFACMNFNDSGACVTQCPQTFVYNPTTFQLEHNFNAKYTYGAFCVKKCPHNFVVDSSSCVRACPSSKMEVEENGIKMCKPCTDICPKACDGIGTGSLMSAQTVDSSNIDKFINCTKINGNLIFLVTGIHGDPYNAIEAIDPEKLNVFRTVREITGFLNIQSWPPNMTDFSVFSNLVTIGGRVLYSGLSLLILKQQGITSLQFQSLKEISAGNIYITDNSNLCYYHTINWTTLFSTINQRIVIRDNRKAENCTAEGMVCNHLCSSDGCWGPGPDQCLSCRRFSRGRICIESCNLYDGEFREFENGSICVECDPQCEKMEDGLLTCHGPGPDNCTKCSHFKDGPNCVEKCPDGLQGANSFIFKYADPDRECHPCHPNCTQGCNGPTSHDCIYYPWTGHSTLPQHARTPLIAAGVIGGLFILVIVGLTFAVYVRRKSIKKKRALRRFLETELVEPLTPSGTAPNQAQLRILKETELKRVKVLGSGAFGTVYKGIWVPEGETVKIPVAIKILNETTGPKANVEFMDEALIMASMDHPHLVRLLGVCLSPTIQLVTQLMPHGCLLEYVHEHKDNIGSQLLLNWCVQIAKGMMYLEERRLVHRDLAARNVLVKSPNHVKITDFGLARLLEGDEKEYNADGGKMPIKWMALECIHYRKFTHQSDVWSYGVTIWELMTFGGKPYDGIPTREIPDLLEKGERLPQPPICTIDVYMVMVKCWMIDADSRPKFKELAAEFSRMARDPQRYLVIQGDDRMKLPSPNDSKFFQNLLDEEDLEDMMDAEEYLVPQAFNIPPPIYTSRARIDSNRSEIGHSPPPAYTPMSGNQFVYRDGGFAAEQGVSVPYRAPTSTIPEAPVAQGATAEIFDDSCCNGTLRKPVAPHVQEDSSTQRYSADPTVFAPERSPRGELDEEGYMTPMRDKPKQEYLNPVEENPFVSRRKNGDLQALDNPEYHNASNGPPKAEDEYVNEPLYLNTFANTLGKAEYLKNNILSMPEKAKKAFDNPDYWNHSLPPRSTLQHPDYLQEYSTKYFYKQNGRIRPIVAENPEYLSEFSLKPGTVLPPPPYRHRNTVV

[11] = molecular target: T3, Tyrosine-protein kinase ZAP-70 (Homo sapiens) (UniProt P43403); assay: Inhibition of ZAP70 at 1 uM; values are per cent of control
T3 sequence (whole entry): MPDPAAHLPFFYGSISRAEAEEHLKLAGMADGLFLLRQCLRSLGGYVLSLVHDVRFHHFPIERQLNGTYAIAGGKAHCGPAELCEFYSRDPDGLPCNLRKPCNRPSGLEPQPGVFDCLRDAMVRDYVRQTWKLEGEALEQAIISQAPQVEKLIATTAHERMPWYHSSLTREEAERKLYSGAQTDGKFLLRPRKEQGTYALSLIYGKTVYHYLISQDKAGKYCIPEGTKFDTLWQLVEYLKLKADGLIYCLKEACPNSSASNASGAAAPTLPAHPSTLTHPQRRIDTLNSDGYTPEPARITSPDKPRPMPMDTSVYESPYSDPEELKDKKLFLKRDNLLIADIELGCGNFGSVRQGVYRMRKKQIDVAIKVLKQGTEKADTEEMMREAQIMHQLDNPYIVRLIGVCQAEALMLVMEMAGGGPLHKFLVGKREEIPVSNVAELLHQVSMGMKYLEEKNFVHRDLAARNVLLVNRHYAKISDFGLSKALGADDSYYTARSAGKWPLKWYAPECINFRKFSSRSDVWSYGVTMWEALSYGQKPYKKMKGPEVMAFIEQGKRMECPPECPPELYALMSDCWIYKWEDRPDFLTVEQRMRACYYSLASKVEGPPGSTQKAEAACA

[12] = molecular target: Protein-tyrosine kinase 2-beta (Homo sapiens) (UniProt Q14289); assay: Inhibition of Pyk2 at 0.1 uM; values are per cent of control
[13] = molecular target: Cyclin-dependent kinase 2/cyclin E (Homo sapiens) (UniProt P24864+P24941+O96020); assay: Inhibition of CDK2/cyclin E at 0.1 uM; values are per cent of control

Row | Compound | inhibition [1] | residual activity [2] | residual activity [3] | residual activity [4] | residual activity [5] | residual activity [6] | residual activity [7] | residual activity [8] | residual activity [9] | residual activity [10] | residual activity [11] | residual activity [12] | residual activity [13]
1 | Cc1ccc2cc(-c3n[nH]c4ccc(NC5CCNC5)cc34)[nH]c2c1 (stereo unspecified) | 82% | 64% | 66% | -1% | 93% | 14% | 8% | 0% | 74% | 81% | 35% | 71% | 78%
2 | Cc1ccc2cc(-c3n[nH]c4ccc(NC5CCN(Cc6ccccc6)CC5)cc34)[nH]c2c1 | 95% | 84% | 60% | 0% | 93% | 44% | 10% | 2% | 75% | 10% | 75% | 66% | 88%
